Molecules are shown by their SMILES. Read-outs that look alike come from different tables or passages of the source. Marks after values point to notes of the source that are not given here.

For one assay, the target named is full-length human RORγt (Homo sapiens (Human), UniProt P51449). The experiment in a line: RORγt (full-length human) reporter assay, Conditions B or C. The format is cell-based. The note with it: for RORγt (FL) Reporter Assay B or C, % inhibition (value marked *): marked *: footnote not given; for inhibition at 6 µM: read-out: RORγt (FL) Reporter Assay B or C, % inhibition @ 6 μM, Conditions B or C; for inhibition at 3 µM: read-out: RORγt (FL) Reporter Assay B or C, % inhibition. The essentials:
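Readout is dual luciferase: firefly (GAL4-driven) normalized to DMSO-only and saturating-reference controls, then to CMV-Renilla. Full-length human RORγt fused to GAL4-DBD was transiently expressed in HEK293T; compound exposure ran overnight (16-20 h) starting 4-6 h after transfection, final FBS 1.3%, DMSO 0.1%.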

Assay [1] deals with human RORγt ligand binding domain (RORγt LBD) (Homo sapiens (Human), UniProt P51449). Briefly: RORγt ThermoFluor® assay (thermal shift binding). The settings on record: read-out: ThermoFluor® Assay, Kd. The method in brief: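 Binding was inferred from thermal stabilisation (ΔTm) of the E. coli-expressed RORγt LBD (0.065 mg/mL), monitored by 1,8-ANS (60 μM) emission at 500 nm during a 1 °C/min ramp. Buffer was Hepes 100 mM pH 7.0 with NaCl, GSH and Tween-20.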
Chain of human RORγt ligand binding domain (RORγt LBD) (P51449 other isoform, or with tags, fused parts or gaps): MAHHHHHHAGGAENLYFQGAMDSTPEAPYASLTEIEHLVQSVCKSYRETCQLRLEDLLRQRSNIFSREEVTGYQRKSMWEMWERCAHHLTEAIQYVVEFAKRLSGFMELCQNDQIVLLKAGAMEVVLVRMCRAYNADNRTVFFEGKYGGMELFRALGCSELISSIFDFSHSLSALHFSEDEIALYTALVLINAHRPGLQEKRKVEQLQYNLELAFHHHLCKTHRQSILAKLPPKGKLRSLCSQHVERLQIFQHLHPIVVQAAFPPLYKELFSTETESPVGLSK

[2] abbreviates: Conditions B or C, read-out: RORγt (FL) Reporter Assay B or C, IC50.
[3] abbreviates: read-out: RORγt (FL) Reporter Assay B or C, IC50.

Chain of full-length human RORγt (P51449 other isoform, or with tags, fused parts or gaps): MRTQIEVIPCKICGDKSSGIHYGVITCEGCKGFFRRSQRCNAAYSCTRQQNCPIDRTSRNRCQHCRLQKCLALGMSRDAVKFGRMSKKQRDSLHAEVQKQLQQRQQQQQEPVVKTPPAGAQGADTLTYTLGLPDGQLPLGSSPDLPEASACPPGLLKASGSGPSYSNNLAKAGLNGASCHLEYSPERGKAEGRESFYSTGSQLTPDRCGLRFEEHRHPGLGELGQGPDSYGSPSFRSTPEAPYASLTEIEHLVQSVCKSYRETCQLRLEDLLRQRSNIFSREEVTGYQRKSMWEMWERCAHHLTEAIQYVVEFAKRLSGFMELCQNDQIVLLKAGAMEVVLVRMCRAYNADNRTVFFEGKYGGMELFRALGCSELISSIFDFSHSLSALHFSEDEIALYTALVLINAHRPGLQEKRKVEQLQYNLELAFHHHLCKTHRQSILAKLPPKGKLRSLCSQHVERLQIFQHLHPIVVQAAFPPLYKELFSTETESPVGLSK

Usually IC50 stands for the concentration at which inhibition is half-maximal. The term Kd denotes a measure of binding affinity in units of concentration. In the case of `C[C@H]1CCCN1C(=O)c1nc(C(=O)NCC(C)(C)O)sc1-c1cnc(NC2(C(F)(F)F)CCC2)cc1C(F)F` [Example 123, (S)-5-(4-(Difluoromethyl)-6-((1-(trifluoromethyl)cyclobutyl)amino)pyridin-3-yl)-N-(2-hydroxy-2-methylpropyl)-4-(2-methylpyrrolidine-1-carbonyl)thiazole-2-carboxamide], the “RORγt (FL) Reporter Assay B or C, % inhibition (value marked *)” value (from here on “RORγt … % inhibition (value marked *)”) on full-length human RORγt (Conditions B or C) is on record as 105* %. The concentration for half-maximal inhibition (IC50) on full-length human RORγt (setting [2]) was determined as 0.013 µM. Besides, the Kd in assay [1] was found to be 1.9 nM.
On the same counts, the results for `C[C@H](Nc1cc(C(F)(F)F)c(-c2sc(C(=O)N[C@@H](C)C(C)(C)O)nc2C(=O)N2CC(F)(F)C[C@@H]2C)cn1)C1CC1` [Example 202, 5-(6-(((S)-1-Cyclopropylethyl)amino)-4-(trifluoromethyl)pyridine-3-yl)-4-((S)-4,4-difluoro-2-methylpyrrolidine-1-carbonyl)-N—((S)-3-hydroxy-3-methylbutan-2-yl)thiazole-2-carboxamide] are 98* %, 0.017 µM and 1.3 nM.
The term inhibition denotes the drop in the measured response relative to a control, in per cent. Take `C[C@H]1CCCN1C(=O)c1nc(C(=O)NCC(C)(C)O)sc1-c1cnc(N[C@H]2CCCCC2(F)F)cc1C(F)(F)F` (relative stereo) [Example 36, 5-(6-(((S*)-2,2-Difluorocyclohexyl)amino)-4-(trifluoromethyl)pyridin-3-yl)-N-(2-hydroxy-2-methylpropyl)-4-((S)-2-methylpyrrolidine-1-carbonyl)thiazole-2-carboxamide]: the IC50 on full-length human RORγt (setting [2]) worked out at 0.016 µM. Moreover, on full-length human RORγt, the inhibition at 6 µM was found to be 116%. Besides, the dissociation constant Kd in assay [1] was determined as 1.7 nM.
Consider `CC[C@H](Nc1cc(C(F)F)c(-c2sc(C(=O)N[C@@H]3CC[C@@H](O)C3)nc2C(=O)N2CC(F)(F)C[C@@H]2C)cn1)C(F)(F)F` [Example 424, 4-[(2S)-4,4-Difluoro-2-methyl-pyrrolidine-1-carbonyl]-5-[4-(difluoromethyl)-6-[[(1S)-1-(trifluoromethyl)propyl]amino]-3-pyridyl]-N-[(1R,3R)-3-hydroxycyclopentyl]thiazole-2-carboxamide], for which the inhibition at 3 µM at full-length human RORγt (at 3 μM compound concentration) was determined as 98%. Further, the IC50 at full-length human RORγt (setting [3]) came out at 0.063 µM. In assay [1], the dissociation constant (Kd) worked out at 0.23 nM.
For the compound `C[C@H](Nc1cc(C(F)F)c(-c2sc(C(=O)N[C@H]3CC[C@H](O)C3)nc2C(=O)N2CC(F)(F)C[C@@H]2C)cn1)C(F)(F)F` [Example 415, 4-[(2S)-4,4-Difluoro-2-methyl-pyrrolidine-1-carbonyl]-5-[4-(difluoromethyl)-6-[[(1S)-2,2,2-trifluoro-1-methyl-ethyl]amino]-3-pyridyl]-N-[(1S,3S)-3-hydroxycyclopentyl]thiazole-2-carboxamide], the inhibition at 3 µM at full-length human RORγt (at 3 μM compound concentration) was 97%. The IC50 at full-length human RORγt (setting [3]) worked out at 0.064 µM. In addition, the dissociation constant (Kd) in assay [1] was found to be 1.1 nM.
On to `C[C@H](Nc1cc(C(F)F)c(-c2sc(C(=O)NC3CCC3O)nc2C(=O)N2CCC[C@@H]2C)cn1)C(F)(F)F` (stereo partly drawn) [Example 389, 5-(4-(Difluoromethyl)-6-(((S)-1,1,1-trifluoropropan-2-yl)amino)pyridin-3-yl)-N-(cis-2-hydroxycyclobutyl)-4-((S)-2-methylpyrrolidine-1-carbonyl)thiazole-2-carboxamide], for which, at full-length human RORγt (at 3 μM compound concentration), the “RORγt (FL) Reporter Assay B or C, % inhibition” value is 90* %. Further, on full-length human RORγt (setting [3]), the half-maximal inhibitory concentration (IC50) worked out at 0.14 µM. The equilibrium dissociation constant (Kd) in assay [1] was 7.7 nM.
As for `C[C@H](Nc1cc(C(F)F)c(-c2sc(C(=O)N[C@@H](C)C(C)(C)O)nc2C(=O)N2CC(F)(F)C[C@@H]2C)cn1)C1CC1` [Example 193, 5-(6-(((S)-1-Cyclopropylethyl)amino)-4-(difluoromethyl)pyridine-3-yl)-4-((S)-4,4-difluoro-2-methylpyrrolidine-1-carbonyl)-N—((S)-3-hydroxy-3-methylbutan-2-yl)thiazole-2-carboxamide], at full-length human RORγt (Conditions B or C), the “RORγt … % inhibition (value marked *)” value is recorded as 82* %. Also, the IC50 at full-length human RORγt (setting [2]) is 0.032 µM. Also, the dissociation constant (Kd) in assay [1] came out at 2.6 nM.
On the same counts, the results for `C[C@H]1CCCN1C(=O)c1nc(C(=O)NCC(C)(C)O)sc1-c1cnc(NC(C2CC2)C2CC2)cc1C(F)F` [Example 179, (S)-5-(6-((Dicyclopropylmethyl)amino)-4-(difluoromethyl)pyridine-3-yl)-N-(2-hydroxy-2-methylpropyl)-4-(2-methylpyrrolidine-1-carbonyl)thiazole-2-carboxamide] are 105* %, 0.018 µM and 2.2 nM.
In the case of `CC[C@H](Nc1cc(C(F)F)c(-c2sc(C(=O)N[C@H](C)C(C)(C)O)nc2C(=O)N2CCCC[C@@H]2C)cn1)C(F)(F)F` [Example 241, 5-[4-(Difluoromethyl)-6-[[(1S)-1-(trifluoromethyl)propyl]amino]-3-pyridyl]-N-[(1R)-2-hydroxy-1,2-dimethyl-propyl]-4-[(2S)-2-methylpiperidine-1-carbonyl]thiazole-2-carboxamide], the “RORγt … % inhibition (value marked *)” value at full-length human RORγt (Conditions B or C) is 103* %. For the same compound, the IC50 at full-length human RORγt (setting [2]) turned out to be 0.024 µM. In addition, the Kd in assay [1] amounted to 0.59 nM.
For the compound `CC[C@H](Nc1cc(C(F)F)c(-c2sc(C(=O)NCC(C)(C)O)nc2C(=O)N2C3CCC2CC3)cn1)C(F)(F)F` [Example 89, 4-((1s,4s)-7-Azabicyclo[2.2.1]heptane-7-carbonyl)-5-(4-(difluoromethyl)-6-(((S)-1,1,1-trifluorobutan-2-yl)amino)pyridin-3-yl)-N-(2-hydroxy-2-methylpropyl)thiazole-2-carboxamide], on full-length human RORγt (Conditions B or C), the “RORγt … % inhibition (value marked *)” value was 100* %. This compound also gave a half-inhibitory concentration (IC50) at full-length human RORγt (RORγt (FL) Reporter Assay B or C, IC50 (μM), Conditions B or C) of 0.024 µM. In addition, the dissociation constant (Kd) in assay [1] came to 5.2 nM.
With `C[C@H]1CC(F)(F)CN1C(=O)c1nc(C(=O)NCC(C)(C)O)sc1-c1cnc(NC2CCCC2)cc1C(F)F` [Example 44, (S)-5-(6-(Cyclopentylamino)-4-(difluoromethyl)pyridin-3-yl)-4-(4,4-difluoro-2-methylpyrrolidine-1-carbonyl)-N-(2-hydroxy-2-methylpropyl)thiazole-2-carboxamide], the 50% inhibitory concentration (IC50) at full-length human RORγt (setting [2]) came to 0.02 µM. In addition, the inhibition at 6 µM at full-length human RORγt stood at 111%. Further, the equilibrium dissociation constant (Kd) in assay [1] stood at 2.5 nM.
Take `C[C@H]1CCCN1C(=O)c1nc(C(=O)NCC2(O)CCC2)sc1-c1cnc(NC2CCCC2)cc1C(F)F` [Example 71, (S)-5-(6-(Cyclopentylamino)-4-(difluoromethyl)pyridin-3-yl)-N-((1-hydroxycyclobutyl)methyl)-4-(2-methylpyrrolidine-1-carbonyl)thiazole-2-carboxamide]: the “RORγt … % inhibition (value marked *)” value at full-length human RORγt (Conditions B or C) is given as 111* %. In addition, the IC50 at full-length human RORγt (setting [2]) is 0.013 µM. In assay [1], the Kd amounted to 3.7 nM.
For `C[C@H]1CCCN1C(=O)c1nc(C(=O)N[C@@H]2CCOC2)sc1-c1cnc(NC(C)(C)C)cc1C(F)(F)F` [Example 373, 5-[6-(tert-Butylamino)-4-(trifluoromethyl)-3-pyridyl]-4-[(2S)-2-methylpyrrolidine-1-carbonyl]-N-[(3R)-tetrahydrofuran-3-yl]thiazole-2-carboxamide], at full-length human RORγt (at 3 μM compound concentration), the inhibition at 3 µM worked out at 122%. Moreover, the IC50 at full-length human RORγt (setting [3]) came out at 0.0046 µM. In addition, the Kd in assay [1] amounted to 1.9 nM.

The values above are taken from patent publication US10975068B2, “6-aminopyridin-3-yl thiazoles as modulators of RORγT” (Janssen Pharmaceutica NV, priority 2016, dated 2021).
